From publication PMC10424186 (Journal of Medicinal Chemistry, 2023)
“Also recorded” adds a separate entry of the source. Where two headings read alike, the source gives them in different places.

Key:
RIOX2 = target: T1, RIOX2 (Homo sapiens, UniProt Q8IUF8); experiment: SPE-MS RIOX2 inhibition assay (RPL27A31–49 hydroxylation); type: biochemical; details: Table 2; His6-RIOX2 26–465 […], 5.0 μM RPL27A31–49; n = 2, mean ± SD
T1 construct: N-terminally His6-tagged RIOX2_26–465; made in house; host or cells: Escherichia coli
T1 sequence (Q8IUF8 26-465): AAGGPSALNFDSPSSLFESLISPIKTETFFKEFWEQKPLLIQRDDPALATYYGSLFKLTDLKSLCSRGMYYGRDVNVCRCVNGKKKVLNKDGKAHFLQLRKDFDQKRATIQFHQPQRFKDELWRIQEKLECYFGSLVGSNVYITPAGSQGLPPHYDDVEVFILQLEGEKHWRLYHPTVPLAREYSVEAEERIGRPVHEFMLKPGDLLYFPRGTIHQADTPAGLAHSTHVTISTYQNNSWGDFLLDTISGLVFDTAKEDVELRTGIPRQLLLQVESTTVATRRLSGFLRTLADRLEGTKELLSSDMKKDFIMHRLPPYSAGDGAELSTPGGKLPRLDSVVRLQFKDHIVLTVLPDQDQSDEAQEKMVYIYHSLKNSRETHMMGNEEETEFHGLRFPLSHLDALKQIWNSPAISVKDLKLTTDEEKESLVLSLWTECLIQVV
Procedure: Cosubstrate/cofactor stock solutions [L-ascorbic acid/LAA: 50 mM in MQ-grade water; 2-oxoglutarate/2OG: 10 mM in MQ-grade water; ammonium iron(II) sulfate hexahydrate/FAS/(NH4)2Fe(SO4)2·6H2O: 400 mM in 20 mM HCl diluted to 1 mM in MQ-grade water] were freshly prepared from commercial solids (Sigma-Aldrich) on the day the assays were performed. […] For JMJD5, PHD2, FIH, RIOX2, and AspH, substrate hydroxylation was monitored (+16 Da mass shift), while for the KDM4E substrate, demethylation was monitored (−14 Da mass shift) by SPE-MS.

AspH [1] = target: T2, AspH (Homo sapiens, UniProt Q12797); experiment: SPE-MS AspH inhibition assay (hFX-CP101–119 hydroxylation); type: biochemical; details: Table 2; His6-AspH315–758 0.05 μM, 1.0 μM hFX-CP101–119; n = 2, mean ± SD
T2 construct: N-terminally His6-tagged AspH315–758; made in house; host or cells: Escherichia coli
T2 sequence (Q12797 315-758): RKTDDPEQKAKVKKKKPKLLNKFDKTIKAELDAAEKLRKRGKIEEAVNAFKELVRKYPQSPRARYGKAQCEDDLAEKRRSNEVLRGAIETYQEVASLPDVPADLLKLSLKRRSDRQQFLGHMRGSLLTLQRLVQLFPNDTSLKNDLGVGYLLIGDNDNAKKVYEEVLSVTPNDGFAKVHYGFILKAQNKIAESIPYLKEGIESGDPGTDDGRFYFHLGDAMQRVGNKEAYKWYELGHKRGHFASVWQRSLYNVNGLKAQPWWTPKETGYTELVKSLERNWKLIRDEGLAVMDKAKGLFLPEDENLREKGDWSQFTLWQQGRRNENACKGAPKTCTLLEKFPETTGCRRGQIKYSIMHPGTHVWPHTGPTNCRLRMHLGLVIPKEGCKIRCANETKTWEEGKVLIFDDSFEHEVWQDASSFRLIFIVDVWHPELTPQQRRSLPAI
Procedure: (§1) H3_1-15K9me3, histone 3 (H3), residues 1–15 with K9 of H3-bearing three methyl groups at the N^ε-position, K4 of H3 substituted by an alanine residue, and K14 of H3 by an isoleucine residue,[73] for KDM4E; and RPL27A, residues 31–49, for RIOX2 (Mina53).[44]
(§2) Cosubstrate/cofactor stock solutions [L-ascorbic acid/LAA: 50 mM in MQ-grade water; 2-oxoglutarate/2OG: 10 mM in MQ-grade water; ammonium iron(II) sulfate hexahydrate/FAS/(NH4)2Fe(SO4)2·6H2O: 400 mM in 20 mM HCl diluted to 1 mM in MQ-grade water] were freshly prepared from commercial solids (Sigma-Aldrich) on the day the assays were performed. The JMJD5,[42] PHD2,[70] FIH,[70] KDM4E,[72],[73] RIOX2,[44] and AspH[45] […] For JMJD5, PHD2, FIH, RIOX2, and AspH, substrate hydroxylation was monitored (+16 Da mass shift), while for the KDM4E substrate, demethylation was monitored (−14 Da mass shift) by SPE-MS.

PHD2 = target: T3, PHD2 (Homo sapiens, UniProt Q9GZT9); experiment: SPE-MS PHD2 inhibition assay (HIF-1α CODD hydroxylation); type: biochemical; details: Table 2; PHD2 181–426 […], 5.0 μM HIF-1α CODD; n = 2, mean ± SD
T3 construct: His6-PHD2_181–426; made in house; host or cells: Escherichia coli
T3 sequence (Q9GZT9 181-426): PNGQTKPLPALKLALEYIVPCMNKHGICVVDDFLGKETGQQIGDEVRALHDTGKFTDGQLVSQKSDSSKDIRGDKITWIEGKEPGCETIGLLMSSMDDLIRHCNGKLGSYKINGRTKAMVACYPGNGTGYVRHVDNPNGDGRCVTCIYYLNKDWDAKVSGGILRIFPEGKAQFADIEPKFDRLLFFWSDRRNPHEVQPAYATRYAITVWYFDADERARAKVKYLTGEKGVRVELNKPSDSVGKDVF
Procedure: as §1, §2

human JMJD5 = human JMJD5 (Homo sapiens, UniProt Q8N371); experiment: SPE-MS JMJD5 inhibition assay (hydroxylation of RPS6 128–148 peptide); type: biochemical
human JMJD5, sequence (Q8N371 whole entry, the tested form may be a part): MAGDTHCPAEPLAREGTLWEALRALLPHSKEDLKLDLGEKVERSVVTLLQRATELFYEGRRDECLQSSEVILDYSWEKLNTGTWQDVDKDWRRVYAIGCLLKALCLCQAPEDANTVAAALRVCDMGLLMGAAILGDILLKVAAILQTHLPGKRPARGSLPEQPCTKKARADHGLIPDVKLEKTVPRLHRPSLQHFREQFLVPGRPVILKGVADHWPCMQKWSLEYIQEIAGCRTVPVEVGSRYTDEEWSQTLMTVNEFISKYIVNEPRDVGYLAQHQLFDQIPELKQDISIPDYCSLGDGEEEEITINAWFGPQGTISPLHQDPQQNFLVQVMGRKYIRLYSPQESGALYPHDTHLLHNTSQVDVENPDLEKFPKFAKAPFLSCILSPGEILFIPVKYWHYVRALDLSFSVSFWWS
From the text: Synthetic peptides with sequences based on reported human 2OG oxygenase substrates were used in SPE-MS inhibition assays: RPS6, residues 128–148, for JMJD5;[42] HIF-α CODD, residues 558–574, for PHD2;[70] HIF-α CAD, residues 788–822, for FIH;[70] H3_1-15K9me3, histone 3 (H3), residues 1–15 with K9 of H3-bearing three methyl groups at the N^ε-position, K4 of H3 substituted by an alanine residue, and K14 of H3 by an isoleucine residue,[73] for KDM4E; and RPL27A, residues 31–49, for RIOX2 (Mina53).[44] All peptides were prepared as C-terminal amides by GL Biochem (Shanghai) Ltd. A synthetic thioether-linked cyclic peptide, hFX-CP101–119,[48] which was designed based on the reported cellular AspH substrate human coagulation factor X (hFX, residues 101–119; C101 was substituted for a D-alanine residue and C112 for a serine residue),[79] was used as AspH substrate; it was prepared with a C-terminal amide according to literature protocols.[80]
Cosubstrate/cofactor stock solutions [L-ascorbic acid/LAA: 50 mM in MQ-grade water; 2-oxoglutarate/2OG: 10 mM in MQ-grade water; ammonium iron(II) sulfate hexahydrate/FAS/(NH4)2Fe(SO4)2·6H2O: 400 mM in 20 mM HCl diluted to 1 mM in MQ-grade water] were freshly prepared from commercial solids (Sigma-Aldrich) on the day the assays were performed. The JMJD5,[42] PHD2,[70] FIH,[70] KDM4E,[72],[73] RIOX2,[44] and AspH[45] SPE-MS inhibition assays were performed as described in the cited literature, using isolated recombinant human enzymes (His6-thioredoxin-JMJD5,[42] His6-PHD2_181–426,[70] His6-FIH,[70] His6-KDM4E,[72],[73] His6-RIOX2_26–465,[87],[88] and His6-AspH315–758[48],[80]) and synthetic peptide substrates (RPS6_128–148 for JMJD5;[42] HIF-α CODD558–574 for PHD2;[70] HIF-α CAD788–822 for FIH;[70] H3_1–15K9me3 for KDM4E;[73] RPL27A31–49 for RIOX2;[44],[71] and hFX-CP101–119 for AspH;[45],[48] see above). For JMJD5, PHD2, FIH, RIOX2, and AspH, substrate hydroxylation was monitored (+16 Da mass shift), while for the KDM4E substrate, demethylation was monitored (−14 Da mass shift) by SPE-MS.

KDM4E [2] = target: T4, KDM4E (Homo sapiens, UniProt B2RXH2); experiment: SPE-MS KDM4E inhibition assay (demethylation of H3 1–15 K9me3); type: biochemical; details: Table 2, 10.0 μM H3 1–15 K9me3, n = 2, mean ± SD
T4 construct: made in house; host or cells: Escherichia coli
T4 sequence (B2RXH2 1-506): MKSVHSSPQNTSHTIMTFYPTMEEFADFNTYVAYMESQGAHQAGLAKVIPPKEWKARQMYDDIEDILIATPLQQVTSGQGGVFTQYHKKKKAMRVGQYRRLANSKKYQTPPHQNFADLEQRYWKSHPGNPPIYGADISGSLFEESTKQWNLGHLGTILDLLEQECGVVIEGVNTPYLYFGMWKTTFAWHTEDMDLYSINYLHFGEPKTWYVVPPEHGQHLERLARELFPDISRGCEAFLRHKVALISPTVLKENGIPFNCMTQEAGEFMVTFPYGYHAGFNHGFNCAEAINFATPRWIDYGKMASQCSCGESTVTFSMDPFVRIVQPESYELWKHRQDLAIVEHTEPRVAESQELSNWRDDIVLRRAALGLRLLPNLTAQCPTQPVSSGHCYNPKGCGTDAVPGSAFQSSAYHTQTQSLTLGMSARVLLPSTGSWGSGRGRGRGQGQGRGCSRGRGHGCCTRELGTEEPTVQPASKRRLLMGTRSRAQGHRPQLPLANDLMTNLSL
Procedure: as §1, §2

KDM4E [3] = target: T4, KDM4E; details: Supporting Table S1; reported FDH-coupled spectrophotometric assay; ref SI 17; cited from earlier work
AspH [4] = target: T2, AspH; details: cited from earlier work; for IC50 AspH: Supporting Table S1, reported SPE-MS value, ref SI 18
KDM4E [5] = target: T4, KDM4E; details: cited from earlier work
[6] = Table 2, JMJD5 […], 2OG 2.0 μM, Fe(II) 2.0 μM, LAA 100 μM, RPS6 128–148 2.0 μM, n = 3, mean ± SD, read-out: IC50 JMJD5
[7] = Supporting Table S1, JMJD5 […], 2OG 2.0 μM, RPS6 128-148 2.0 μM, pH 7.5, 20 °C, n = 3, mean ± SD, read-out: IC50 JMJD5
[8] = supplementary CSV, read-out: IC50 JMJD5
[9] = Table 1, JMJD5 […], 2OG 2.0 μM, Fe(II) 2.0 μM, LAA 100 μM, RPS6 128–148 2.0 μM, pH 7.5, 20 °C, n = 3, mean ± SD, read-out: IC50 JMJD5
[10] = isolated recombinant JMJD5, SPE-MS
[11] = isolated recombinant JMJD5, SPE-MS, approximate values, read-out: IC50 for JMJD5 inhibition

| IC50 (RIOX2) [µM] | IC50 (AspH [1]) [µM] | IC50 (PHD2) [µM] | IC50 (KDM4E [2]) [µM] | SMILES | other results |
| --- | --- | --- | --- | --- | --- |
| 27.3 ± 6.7 | 2.8 ± 0.4 | > 50 | 28.2 ± 4.1 | O=C(O)c1cc(C(=O)O)c(NCCCc2ccccc2)cn1 [Compound 20c] | IC50 (human JMJD5; [6]): 0.3 ± 0.1 µM |
| 34 ± 8.5 | 2.6 ± 0.6 | > 50 | 3.2 ± 0.3 | O=C(O)c1cc(C(=O)O)c(NCC2CCCCC2)cn1 [Compound 20f] |  |
| 27.9 ± 6.7 | 1.8 ± 0.1 | > 50 | 5.9 ± 0.6 | O=C(O)c1cc(C(=O)O)c(NCCc2ccccc2)cn1 [Compound 20b] | IC50 (human JMJD5; [6]): 0.9 ± 0.2 µM |

Continued, molecule first:

| SMILES | IC50 (RIOX2) [µM] | IC50 (AspH [1]) [µM] | IC50 (PHD2) [µM] | IC50 (KDM4E [2]) [µM] | other results |
| --- | --- | --- | --- | --- | --- |
| COc1ccc(CNc2cnc(C(=O)O)cc2C(=O)O)cc1 [Compound 20h, 5-((4-methoxybenzyl)amino)pyridine-2,4-dicarboxylic acid] | 27.6 ± 7.1 | 2 ± 0.4 | > 50 | 15.5 ± 1.9 |  |
| COc1ccccc1CNc1cnc(C(=O)O)cc1C(=O)O [Compound 20i, 5-((2-methoxybenzyl)amino)pyridine-2,4-dicarboxylic acid] | > 50 | 0.9 ± 0.2 | > 50 | 11.3 ± 2.9 |  |
| O=C(O)c1ccc(Nc2c(C(=O)O)ccnc2C(=O)O)cc1 [Compound 22] |  |  |  |  | IC50 (KDM4E [3]): 66 µM; IC50 AspH (AspH [4]): inactive; IC50 (human JMJD5; [7]): > 50 µM; IC50 (human JMJD5; [8]): > 50 µM |
| O=C(O)c1ccnc(C(=O)O)c1Nc1ccc([N+](=O)[O-])cc1 [Compound 23] |  |  |  |  | IC50 (KDM4E [3]): 95 µM; IC50 AspH (AspH [4]): inactive; IC50 (human JMJD5; [7]): > 50 µM; IC50 (human JMJD5; [8]): > 50 µM |
| O=C(O)c1ccnc(C(=O)O)c1C(F)(F)F [Compound 14, 3-trifluoromethyl-2,4-PDCA] |  |  |  |  | AspH inhibition (in words) (AspH [4]; isolated recombinant AspH): does not inhibit; IC50 (human JMJD5; [9]): > 50 µM; JMJD5 inhibition (in words) (human JMJD5; [10]): did not efficiently inhibit JMJD5; IC50 (human JMJD5; [11]): > 50 µM; KDM4E inhibition (in words) (KDM4E [5]): not to inhibit KDM4E |
| O=C(O)c1cc(C(=O)O)c(C(F)(F)F)cn1 [Compound 16, 5-trifluoromethyl-2,4-PDCA] |  |  |  |  | IC50 (human JMJD5; [9]): > 50 µM; JMJD5 inhibition (in words) (human JMJD5; [10]): did not efficiently inhibit JMJD5; also recorded: does not inhibit JMJD5; IC50 (human JMJD5; [11]): > 50 µM; KDM4E inhibition (in words) (KDM4E [5]): not to inhibit KDM4E |
